Measured values reported in US20200024278A1, “COMPOSITION COMPRISING ANTIBIOTIC COMPOUND AND AN HETEROCYCLIC COMPOUND AND THEIR USE IN PREVENTING OR TREATING BACTERIAL INFECTIONS” (MUTABILIS, priority 2016, published 2020).

Key:
Experiment in all cases: MIC, broth microdilution (CLSI), substance alone or ATB combined with compound at 4 or 8 μg/mL
ECO 190317 = type: cell-based, E. coli; details: ECO 190317; for MIC ATB combined with Example: Example @8 μg/ml
Outline: (§1)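 CLSI broth microdilution in cation-adjusted Mueller-Hinton broth, 5·10^5 CFU/mL log-phase inoculum, 16-20 h at 35 °C in ambient air. Fosfomycin assays supplemented with 25 μg/ml glucose-6-phosphate.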

ECO UFR39 = type: cell-based, E. coli; details: ECO UFR39; for MIC ATB combined with Example: Example @8 μg/ml; for MIC ATB combined with Example compound: compound @8 μg/ml
Outline: as §1

KPN 6299 = type: cell-based, K. pneumoniae; details: for MIC ATB combined with Example: Example @8 μg/ml
Outline: as §1

KPN BAA-1898 = type: cell-based, K. pneumoniae; details: KPN BAA-1898; for MIC ATB combined with Example: Example @8 μg/ml
Outline: as §1

KPN UFR42 = type: cell-based, K. pneumoniae; details: KPN UFR42; for MIC ATB combined with Example: Example @8 μg/ml; for MIC ATB combined with Example compound: compound @8 μg/ml
Outline: as §1

ECL P99 = type: cell-based, E. cloacae; details: ECL P99; for MIC ATB combined with Example: Example @8 μg/ml
Outline: as §1

PAE 105250 = type: cell-based, P. aeruginosa; details: PAE 105250; for MIC ATB combined with Example: Example @8 μg/ml; for MIC ATB combined with Example compound: compound @8 μg/ml
Outline: as §1

PAE UFR48 = type: cell-based, P. aeruginosa; details: PAE UFR48; for MIC ATB combined with Example: Example @8 μg/ml; for MIC ATB combined with Example compound: compound @8 μg/ml
Outline: as §1

PAE UFR90 = type: cell-based, P. aeruginosa; details: PAE UFR90; for MIC ATB combined with Example: Example @8 μg/ml; for MIC ATB combined with Example compound: compound @8 μg/ml
Outline: as §1

SAU 29213 = type: cell-based, S. aureus; details: for MIC ATB combined with Example / MIC ATB combined with Example compound: SAU 29213; for MIC ATB combined with Example: Example @8 μg/ml; for MIC ATB combined with Example compound: compound @8 μg/ml
Outline: as §1

SPN 49619 = type: cell-based, S. pneumoniae; details: SPN 49619; for MIC ATB combined with Example: Example @8 μg/ml; for MIC ATB combined with Example compound: compound @8 μg/ml
Outline: as §1

ABA UFR152 = type: cell-based, A. baumannii; details: Acinetobacter baumannii, substance alone, read-out: MIC
Outline: as §1

ABA UFR156 = type: cell-based, A. baumannii; details: Acinetobacter baumannii, substance alone, read-out: MIC
Outline: as §1

[1] = Escherichia coli, substance alone, read-out: MIC
[2] = Pseudomonas aeruginosa, substance alone, read-out: MIC

## O=C1N2CC(n3cccn3)=CC(C2)N1OS(=O)(=O)[O-].[Na+] (stereo not drawn) [Example 11, sodium (7-oxo-3-pyrazol-1-yl-1,6-diazabicyclo[3.2.1]oct-3-en-6-yl) sulfate]
ECO 190317; ATB ATM
  MIC ATB combined with Example: <0.031 µg/mL
ECO 190317; ATB FEP
  MIC ATB combined with Example: <0.031 µg/mL
ECO 190317; ATB FOS
  MIC ATB combined with Example: <0.125 µg/mL
ECO 190317; ATB MEM
  MIC ATB combined with Example: <0.031 µg/mL
ECO 190317; ATB PIP
  MIC ATB combined with Example: <0.031 µg/mL
ECO 190317; [1]
  MIC: 1 µg/mL
ECO 190317; MIC of CIP, compound @8 μg/ml
  MIC ATB combined with Example compound: <0.031 µg/mL
ECO UFR39; ATB ATM
  MIC ATB combined with Example: <0.031 µg/mL
ECO UFR39; ATB FEP
  MIC ATB combined with Example: <0.031 µg/mL
ECO UFR39; ATB FOS
  MIC ATB combined with Example: <0.125 µg/mL
ECO UFR39; ATB MEM
  MIC ATB combined with Example: <0.031 µg/mL
ECO UFR39; ATB PIP
  MIC ATB combined with Example: <0.031 µg/mL
ECO UFR39; [1]
  MIC: 4 µg/mL
ECO UFR39; MIC of CIP
  MIC ATB combined with Example compound: <0.031 µg/mL
ECO UFR39; MIC of CPO
  MIC ATB combined with Example compound: <0.031 µg/mL
KPN 6299; ATB ATM
  MIC ATB combined with Example: <0.031 µg/mL
KPN 6299; ATB FEP
  MIC ATB combined with Example: <0.031 µg/mL
KPN 6299; ATB FOS
  MIC ATB combined with Example: <0.125 µg/mL
KPN 6299; ATB MEM
  MIC ATB combined with Example: <0.031 µg/mL
KPN 6299; ATB PIP
  MIC ATB combined with Example: <=0.031 μg/mL
KPN 6299; MIC of CIP, compound @8 μg/ml
  MIC ATB combined with Example compound: <=0.031 μg/mL
KPN BAA-1898; ATB ATM
  MIC ATB combined with Example: <0.031 µg/mL
KPN BAA-1898; ATB FEP
  MIC ATB combined with Example: <0.031 µg/mL
KPN BAA-1898; ATB FOS
  MIC ATB combined with Example: <=0.125 μg/mL
KPN BAA-1898; ATB MEM
  MIC ATB combined with Example: <=0.031 μg/mL
KPN BAA-1898; ATB PIP
  MIC ATB combined with Example: <0.031 µg/mL
KPN BAA-1898; Klebsiella pneumoniae, BAA1898, substance alone, read-out: MIC
  MIC: 8 µg/mL
KPN BAA-1898; MIC of CIP, compound @8 μg/ml
  MIC ATB combined with Example compound: <0.031 µg/mL
KPN UFR42; ATB ATM
  MIC ATB combined with Example: <0.031 µg/mL
KPN UFR42; ATB FEP
  MIC ATB combined with Example: <0.031 µg/mL
KPN UFR42; ATB FOS
  MIC ATB combined with Example: <0.125 µg/mL
KPN UFR42; ATB MEM
  MIC ATB combined with Example: 0.5 µg/mL
KPN UFR42; ATB PIP
  MIC ATB combined with Example: >32 µg/mL
KPN UFR42; Klebsiella pneumoniae, substance alone, read-out: MIC
  MIC: 8 µg/mL
KPN UFR42; MIC of CIP
  MIC ATB combined with Example compound: 32 µg/mL
KPN UFR42; MIC of CPO
  MIC ATB combined with Example compound: <0.031 µg/mL
ECL P99; ATB ATM
  MIC ATB combined with Example: <0.031 µg/mL
ECL P99; ATB FEP
  MIC ATB combined with Example: <0.031 µg/mL
ECL P99; ATB FOS
  MIC ATB combined with Example: <0.125 µg/mL
ECL P99; ATB MEM
  MIC ATB combined with Example: <0.031 µg/mL
ECL P99; ATB PIP
  MIC ATB combined with Example: <0.031 µg/mL
ECL P99; Enterobacter cloacae, substance alone, read-out: MIC
  MIC: 4 µg/mL
ECL P99; MIC of CIP, compound @8 μg/ml
  MIC ATB combined with Example compound: <0.031 µg/mL
PAE 105250; ATB ATM
  MIC ATB combined with Example: 16 µg/mL
PAE 105250; ATB FEP
  MIC ATB combined with Example: 8 µg/mL
PAE 105250; ATB FOS
  MIC ATB combined with Example: >128 µg/mL
PAE 105250; ATB MEM
  MIC ATB combined with Example: 2 µg/mL
PAE 105250; ATB PIP
  MIC ATB combined with Example: 32 µg/mL
PAE 105250; MIC of CIP
  MIC ATB combined with Example compound: 0.125 µg/mL
PAE 105250; MIC of CPO
  MIC ATB combined with Example compound: 16 µg/mL
PAE 105250; [2]
  MIC: > 32 µg/mL
PAE UFR48; ATB ATM
  MIC ATB combined with Example: 8 µg/mL
PAE UFR48; ATB FEP
  MIC ATB combined with Example: 32 µg/mL
PAE UFR48; ATB FOS
  MIC ATB combined with Example: 32 µg/mL
PAE UFR48; ATB MEM
  MIC ATB combined with Example: 0.25 µg/mL
PAE UFR48; ATB PIP
  MIC ATB combined with Example: 16 µg/mL
PAE UFR48; MIC of CIP
  MIC ATB combined with Example compound: 4 µg/mL
PAE UFR48; MIC of CPO
  MIC ATB combined with Example compound: >32 µg/mL
PAE UFR48; [2]
  MIC: > 32 µg/mL
PAE UFR90; ATB ATM
  MIC ATB combined with Example: 4 µg/mL
PAE UFR90; ATB FEP
  MIC ATB combined with Example: 2 µg/mL
PAE UFR90; ATB FOS
  MIC ATB combined with Example: 8 µg/mL
PAE UFR90; ATB MEM
  MIC ATB combined with Example: 1 µg/mL
PAE UFR90; ATB PIP
  MIC ATB combined with Example: 16 µg/mL
PAE UFR90; MIC of CIP
  MIC ATB combined with Example compound: 1 µg/mL
PAE UFR90; MIC of CPO
  MIC ATB combined with Example compound: 2 µg/mL
PAE UFR90; [2]
  MIC: > 32 µg/mL
SAU 29213; ATB ATM
  MIC ATB combined with Example: >32 µg/mL
SAU 29213; ATB FEP
  MIC ATB combined with Example: 0.5 µg/mL
SAU 29213; ATB FOS
  MIC ATB combined with Example: <=0.125 μg/mL
SAU 29213; ATB MEM
  MIC ATB combined with Example: <=0.031 μg/mL
SAU 29213; ATB PIP
  MIC ATB combined with Example: 0.125 µg/mL
SAU 29213; MIC of CIP
  MIC ATB combined with Example compound: <=0.031 μg/mL
SAU 29213; MIC of CLI
  MIC ATB combined with Example compound: <0.0010 µg/mL
SAU 29213; MIC of CPO
  MIC ATB combined with Example compound: <0.031 µg/mL
SAU 29213; MIC of DAP
  MIC ATB combined with Example compound: <=0.0020 μg/mL
SAU 29213; MIC of ERY
  MIC ATB combined with Example compound: <0.0020 µg/mL
SAU 29213; MIC of LZD
  MIC ATB combined with Example compound: <0.0078 µg/mL
SAU 29213; MIC of RIF
  MIC ATB combined with Example compound: 0.002 µg/mL
SAU 29213; MIC of SYN
  MIC ATB combined with Example compound: 0.125 µg/mL
SAU 29213; MIC of VAN
  MIC ATB combined with Example compound: <0.0039 µg/mL
SAU 29213; Staphylococcus aureus, substance alone, SAU 29213 (MSSA 29213), read-out: MIC
  MIC: 8 µg/mL
SPN 49619; ATB ATM
  MIC ATB combined with Example: >32 µg/mL
SPN 49619; ATB FEP
  MIC ATB combined with Example: <=0.031 μg/mL
SPN 49619; ATB FOS
  MIC ATB combined with Example: 8 µg/mL
SPN 49619; ATB MEM
  MIC ATB combined with Example: <=0.031 μg/mL
SPN 49619; ATB PIP
  MIC ATB combined with Example: 0.5 µg/mL
SPN 49619; MIC of CIP
  MIC ATB combined with Example compound: <0.031 µg/mL
SPN 49619; MIC of CLI
  MIC ATB combined with Example compound: 0.0078 µg/mL
SPN 49619; MIC of CPO
  MIC ATB combined with Example compound: <=0.031 μg/mL
SPN 49619; MIC of DAP
  MIC ATB combined with Example compound: 0.125 µg/mL
SPN 49619; MIC of ERY
  MIC ATB combined with Example compound: 0.0078 µg/mL
SPN 49619; MIC of LZD
  MIC ATB combined with Example compound: 0.25 µg/mL
SPN 49619; MIC of RIF
  MIC ATB combined with Example compound: 0.002 µg/mL
SPN 49619; MIC of SYN
  MIC ATB combined with Example compound: 0.25 µg/mL
SPN 49619; MIC of VAN
  MIC ATB combined with Example compound: 0.031 µg/mL
SPN 49619; Streptococcus pneumoniae, substance alone, read-out: MIC
  MIC: 16 µg/mL
ABA UFR152
  MIC: > 32 µg/mL
ABA UFR156
  MIC: > 32 µg/mL
